Drawing on patent US7868026B2, “Therapeutic compounds” (Pfizer Inc., priority 2005, dated 2011), this text covers IC50 and Ki for 26 compounds.

As a reminder, the IC50 is the concentration that gives 50% inhibition.

Common to all, as to type: biochemical
The target of assay [1] is T1, CYP3A4 (Homo sapiens, UniProt P08684). The assay can be described thus: Determination of IC50 against CYP3A4 by measurement of inhibition of midazolam metabolism (human liver microsomes, 1-hydroxymidazolam by LC-MS/MS). More on the design: 0.1 mg/mL human liver microsomes. The settings on record: 2 μM midazolam, 0.1 mg/mL human liver microsomes. A digest of the protocol: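 Human liver microsomes (0.1 mg/mL) incubated 8 min with 2 μM midazolam and 1 mM NADPH in 100 mM potassium phosphate, pH 7.4. 1-Hydroxymidazolam quantified by LC-MS/MS (MRM) as peak area ratio to internal standard against a metabolite standard curve.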
A general note: Microsomes from liver hold many membrane-bound enzymes, among them those of drug oxidation.

In assay [2] the target is T1, CYP3A4. The assay can be described thus: Determination of compound Kiapp against recombinant CYP3A4 enzyme (BFC fluorescent substrate). An outline of the steps: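 Recombinant CYP3A4 (5.5 or 8 nM, with or without b5 depending on source) pre-incubated with inhibitor ≥30 min at room temperature in 100 mM sodium phosphate pH 7.0, 5 mM TCEP, 2% DMF. Reaction started with 200 uM NADPH and 5 uM BFC; initial fluorescence rates over 5 min fitted to Morrison tight-binding (non-partial) or Szedlacsek (partial) equations for Kiapp.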

Assay [3] concerns the target T1, CYP3A4. The assay can be described thus: Determination of IC50 against CYP3A4 by measurement of inhibition of testosterone metabolism (human liver microsomes, 6-β-OH-testosterone by LC-MS/MS). More on the design: 0.1 mg/mL human liver microsomes. The settings on record: read-out: IC50 (Testo.). An outline of the steps:
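Human liver microsomes (0.1 mg/mL) incubated with 25 μM testosterone and 1 mM NADPH in 100 mM potassium phosphate, pH 7.4, for eight minutes. 6-β-OH-testosterone measured by LC-MS/MS in MRM mode against an internal standard and quantified from a metabolite standard curve.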

Where [4] appears, read: Baculo. enzyme preparation, read-out: Kiapp (BFC, Baculo.).
The mark [5] stands for this setting: Super. enzyme preparation, read-out: Kiapp (BFC, Super.).

Molecules are shown by their SMILES. Where two headings read alike, the source gives them in different places.

T1 sequence (P08684 whole entry): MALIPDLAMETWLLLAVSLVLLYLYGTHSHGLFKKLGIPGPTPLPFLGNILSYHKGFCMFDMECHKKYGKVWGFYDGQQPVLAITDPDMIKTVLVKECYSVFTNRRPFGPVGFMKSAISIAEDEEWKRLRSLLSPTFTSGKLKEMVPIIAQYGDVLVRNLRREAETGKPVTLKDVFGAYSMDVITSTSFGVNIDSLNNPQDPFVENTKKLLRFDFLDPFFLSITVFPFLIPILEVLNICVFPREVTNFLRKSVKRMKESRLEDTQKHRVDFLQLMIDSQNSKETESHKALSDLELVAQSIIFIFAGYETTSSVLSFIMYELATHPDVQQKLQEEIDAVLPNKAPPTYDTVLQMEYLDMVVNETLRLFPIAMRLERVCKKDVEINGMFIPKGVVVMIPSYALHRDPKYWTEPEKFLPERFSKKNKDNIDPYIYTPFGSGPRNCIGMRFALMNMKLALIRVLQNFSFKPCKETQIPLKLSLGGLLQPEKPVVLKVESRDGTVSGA

On to `COc1cncc(NS(=O)(=O)c2ccccc2C(=O)NCCc2cccnc2)c1` [Example 384, 2-{[(5-methoxypyridin-3-yl)amino]sulfonyl}-N-(2-pyridin-3-ylethyl)benzamide], for which the IC50 was 43 nM at CYP3A4 [1] and 178 nM at CYP3A4 [3]. The Ki was found to be 560 nM at CYP3A4 [2] (setting [4]) and 19.2 nM at CYP3A4 [2] (setting [5]).
For the compound `COc1cncc(NS(=O)(=O)c2ccccc2C(=O)NCCC2CCCC2)c1` [Example 209, N-(2-cyclopentylethyl)-2-{[(5-methoxypyridin-3-yl)amino]sulfonyl}benzamide], the IC50 on CYP3A4 [1] is 4 nM; at CYP3A4 [3], 5 nM. The Ki on CYP3A4 [2] (setting [4]) stood at 18.2 nM; at CYP3A4 [2] (setting [5]), 6.1 nM.
As for `Cc1ccccc1CCNC(=O)c1ccccc1S(=O)(=O)N(C)c1cccnc1` [Example 325, N-[2-(2-methylphenyl)ethyl]-2-{[methyl(pyridin-3-yl)amino]sulfonyl}benzamide], the IC50 on CYP3A4 [1] worked out at 119 nM; on CYP3A4 [3], 84 nM. Also, the Ki on CYP3A4 [2] (setting [4]) turned out to be 35 nM; on CYP3A4 [2] (setting [5]), 8.6 nM.
On the same counts, the results for `COc1cncc(NS(=O)(=O)c2ccccc2C(=O)NCCOC(C)C)c1` [Example 241, N-(2-isopropoxyethyl)-2-{[(5-methoxypyridin-3-yl)amino]sulfonyl}benzamide] are 77 nM, 150 nM, 751 nM and 97 nM.
Take `COc1cncc(NS(=O)(=O)c2ccccc2C(=O)NCc2c(F)ccc(C)c2F)c1` [Example 180, N-(2,6-difluoro-3-methylbenzyl)-2-{[(5-methoxypyridin-3-yl)amino]sulfonyl}benzamide]: the values for the IC50 at CYP3A4 [1] and at CYP3A4 [3] were 4 nM and 11 nM, respectively. Moreover, the Ki amounted to 92.8 nM on CYP3A4 [2] (setting [4]) and 7 nM on CYP3A4 [2] (setting [5]).
In the case of `C[C@@H]1CN(C(=O)c2ccccc2S(=O)(=O)Nc2cccnc2)C[C@H](C)O1` [Example 27, 2-{[(2R,6S)-2,6-dimethylmorpholin-4-yl]carbonyl}-N-pyridin-3-ylbenzenesulfonamide], the IC50 was 658 nM on CYP3A4 [1] and more than 750 nM at CYP3A4 [3]. Moreover, the Ki at CYP3A4 [2] (setting [4]) is more than 1000 nM.
`CCC(C)(C)NC(=O)c1ccccc1S(=O)(=O)Nc1cccnc1` [Example 38, N-(1,1-dimethylpropyl)-2-[(pyridin-3-ylamino)sulfonyl]benzamide]: the 50% inhibitory concentration (IC50) on CYP3A4 [1] was found to be 68 nM; at CYP3A4 [3] it was 84 nM. Besides, the Ki on CYP3A4 [2] (setting [4]) was determined as 644 nM.
For `Cc1cncc(NS(=O)(=O)c2ccccc2C(=O)N(C)C(C)C)c1` [Example 281, N-isopropyl-N-methyl-2-{[(5-methylpyridin-3-yl)amino]sulfonyl}benzamide], the concentration for half-maximal inhibition (IC50) on CYP3A4 [1] worked out at 31 nM; at CYP3A4 [3], 65 nM. Besides, the values for the Ki at CYP3A4 [2] (setting [4]) and at CYP3A4 [2] (setting [5]) were 468 nM and 42.6 nM, respectively.
Regarding `COc1cncc(NS(=O)(=O)c2ccccc2C(=O)NCc2ccccc2F)c1` [Example 378, N-(2-fluorobenzyl)-2-{[(5-methoxypyridin-3-yl)amino]sulfonyl}benzamide], the IC50 is 13 nM at CYP3A4 [1] and 14 nM at CYP3A4 [3]. Also, the Ki stood at 78 nM on CYP3A4 [2] (setting [4]) and 18.7 nM on CYP3A4 [2] (setting [5]).
Regarding `COc1cncc(NS(=O)(=O)c2ccccc2C(=O)NCCc2cc(F)ccc2F)c1` [Example 197, N-[2-(2,5-difluorophenyl)ethyl]-2-{[(5-methoxypyridin-3-yl)amino]sulfonyl}benzamide], the IC50 on CYP3A4 [1] turned out to be 4 nM; at CYP3A4 [3], 18 nM. The figures for the Ki on CYP3A4 [2] (setting [4]) and on CYP3A4 [2] (setting [5]) were 69.5 nM and 20.1 nM, respectively.
Consider `COc1ccncc1NS(=O)(=O)c1ccccc1C(=O)NCCC(C)C` [Example 277, 2-{[(4-methoxypyridin-3-yl)amino]sulfonyl}-N-(3-methylbutyl)benzamide], for which the results for the IC50 on CYP3A4 [1] and on CYP3A4 [3] were 53 nM and 65 nM, respectively. Also, the Ki at CYP3A4 [2] (setting [4]) was found to be 459 nM; at CYP3A4 [2] (setting [5]), 47.9 nM.
On to `COc1ccncc1NS(=O)(=O)c1ccccc1C(=O)NCCOc1ccccc1` [Example 224, 2-{[(4-methoxypyridin-3-yl)amino]sulfonyl}-N-(2-phenoxyethyl)benzamide], for which the IC50 at CYP3A4 [1] worked out at 29 nM; on CYP3A4 [3] it was 56 nM. For the same compound, the Ki on CYP3A4 [2] (setting [4]) amounted to 399 nM; at CYP3A4 [2] (setting [5]), 56.8 nM.
With `COc1ccc(CNC(=O)c2ccccc2S(=O)(=O)Nc2cncc(C)c2)cc1` [Example 361, N-(4-methoxybenzyl)-2-{[(5-methylpyridin-3-yl)amino]sulfonyl}benzamide], the IC50 on CYP3A4 [1] turned out to be 16 nM; at CYP3A4 [3], 40 nM. The Ki on CYP3A4 [2] (setting [4]) came out at 274 nM; on CYP3A4 [2] (setting [5]), 41.4 nM.
For `Cc1ccncc1NS(=O)(=O)c1ccccc1C(=O)N(C)CCC(C)C` [Example 164, N-methyl-N-(3-methylbutyl)-2-{[(4-methylpyridin-3-yl)amino]sulfonyl}benzamide], the IC50 turned out to be 24 nM at CYP3A4 [1] and 47 nM at CYP3A4 [3]. Further, the Ki was 281 nM at CYP3A4 [2] (setting [4]) and 34.3 nM at CYP3A4 [2] (setting [5]).
Consider `COCCNC(=O)c1ccccc1S(=O)(=O)Nc1cncc(OC)c1` [Example 239, N-(2-methoxyethyl)-2-{[(5-methoxypyridin-3-yl)amino]sulfonyl}benzamide], for which the IC50 was found to be 163 nM on CYP3A4 [1] and 301 nM on CYP3A4 [3]. The Ki on CYP3A4 [2] (setting [4]) was 849 nM; on CYP3A4 [2] (setting [5]), 191 nM.
For `CCOc1ccncc1NS(=O)(=O)c1ccccc1C(=O)NCc1ccc(F)c(F)c1` [Example 252, N-(3,4-difluorobenzyl)-2-{[(4-ethoxypyridin-3-yl)amino]sulfonyl}benzamide] the same measures were 9 nM, 9 nM, 17.1 nM and 5.41 nM.
Regarding `CCCCCN(C)C(=O)c1cc(Cl)ccc1S(=O)(=O)Nc1cncc(OC)c1` [Example 268, 5-chloro-2-{[(5-methoxypyridin-3-yl)amino]sulfonyl}-N-methyl-N-pentylbenzamide], the IC50 stood at 44 nM at CYP3A4 [1] and 63 nM at CYP3A4 [3]. In addition, the values for the Ki at CYP3A4 [2] (setting [4]) and on CYP3A4 [2] (setting [5]) were 110 nM and 19.4 nM, respectively.
Consider `CCCCCNC(=O)c1ccccc1S(=O)(=O)Nc1cncc(C)c1` [Example 360, 2-{[(5-methylpyridin-3-yl)amino]sulfonyl}-N-pentylbenzamide], for which the IC50 at CYP3A4 [1] stood at 25 nM; at CYP3A4 [3] it was 43 nM. Besides, the Ki stood at 80.8 nM on CYP3A4 [2] (setting [4]) and 21.8 nM on CYP3A4 [2] (setting [5]).
For the compound `CCCN(CCOC)C(=O)c1ccccc1S(=O)(=O)Nc1cncc(OC)c1` [Example 246, N-(2-methoxyethyl)-2-{[(5-methoxypyridin-3-yl)amino]sulfonyl}-N-propylbenzamide], the IC50 was 36 nM on CYP3A4 [1] and 72 nM at CYP3A4 [3]. Moreover, the Ki on CYP3A4 [2] (setting [4]) came to 50.3 nM; on CYP3A4 [2] (setting [5]), 18.5 nM.
In the case of `CCOCCNC(=O)c1ccccc1S(=O)(=O)Nc1cncc(C)c1` [Example 228, N-(2-ethoxyethyl)-2-{[(5-methylpyridin-3-yl)amino]sulfonyl}benzamide], the IC50 on CYP3A4 [1] was 53 nM; on CYP3A4 [3] it was 161 nM. Moreover, the Ki on CYP3A4 [2] (setting [4]) is more than 1000 nM; on CYP3A4 [2] (setting [5]), 120 nM.
Take `COc1cncc(NS(=O)(=O)c2ccc(Cl)cc2C(=O)N2CCCC(C)C2)c1` (centres unmarked) [Example 308, 4-chloro-N-(5-methoxypyridin-3-yl)-2-[(3-methylpiperidin-1-yl)carbonyl]benzenesulfonamide]: the figures for the IC50 at CYP3A4 [1] and on CYP3A4 [3] were 62 nM and 95 nM, respectively. Further, the values for the Ki at CYP3A4 [2] (setting [4]) and on CYP3A4 [2] (setting [5]) were 513 nM and 42 nM, respectively.
For `COc1cncc(NS(=O)(=O)c2ccccc2C(=O)NCc2ccc(Cl)c(Cl)c2)c1` [Example 314, N-(3,4-dichlorobenzyl)-2-{[(5-methoxypyridin-3-yl)amino]sulfonyl}benzamide], the IC50 on CYP3A4 [1] and at CYP3A4 [3] was 17 nM throughout. Also, the Ki turned out to be 18.7 nM at CYP3A4 [2] (setting [4]) and 4.5 nM at CYP3A4 [2] (setting [5]).
For the compound `Cc1ccncc1NS(=O)(=O)c1ccccc1C(=O)NCCOc1ccccc1` [Example 171, 2-{[(4-methylpyridin-3-yl)amino]sulfonyl}-N-(2-phenoxyethyl)benzamide], the values for the IC50 at CYP3A4 [1] and on CYP3A4 [3] were 35 nM and 38 nM, respectively. The Ki on CYP3A4 [2] (setting [4]) was 299 nM; on CYP3A4 [2] (setting [5]), 49.1 nM.
Turning to `Cc1ccccc1CCNC(=O)c1ccccc1S(=O)(=O)Nc1cnccc1C` [Example 177, N-[2-(2-methylphenyl)ethyl]-2-{[(4-methylpyridin-3-yl)amino]sulfonyl}benzamide], the IC50 came to 11 nM at CYP3A4 [1] and 12 nM on CYP3A4 [3]. For the same compound, the Ki amounted to 70.6 nM at CYP3A4 [2] (setting [4]) and 3.5 nM at CYP3A4 [2] (setting [5]).
As for `O=C(NCc1cccc2[nH]ccc12)c1ccccc1S(=O)(=O)Nc1cccnc1` [Example 52, N-(1H-indol-4-ylmethyl)-2-[(pyridin-3-ylamino)sulfonyl]benzamide], the IC50 on CYP3A4 [1] worked out at 27 nM; on CYP3A4 [3], 73 nM. In addition, the Ki at CYP3A4 [2] (setting [4]) was 560 nM.
Regarding `CCCCN(C)C(=O)c1ccccc1S(=O)(=O)Nc1cnccc1C` [Example 230, N-butyl-N-methyl-2-{[(4-methylpyridin-3-yl)amino]sulfonyl}benzamide], the IC50 at CYP3A4 [1] amounted to 42 nM; at CYP3A4 [3], 87 nM. Also, the Ki at CYP3A4 [2] (setting [4]) was determined as 373 nM; on CYP3A4 [2] (setting [5]) it was 78.4 nM.
